One test concerns peroxidase. The experiment in a line: Peroxidase assay in saliva (Amplex Red). Type of test: biochemical. Conditions: 500 ppm, 30 minutes, FIGS. 26-29. How it is done:
To determine the effect of various GRAS compounds as inhibitors of peroxidase activity, a standard assay using Amplex® Red (Life Technologies), which releases a fluorescent oxidation product.
The test compounds, such as GRAS materials or cocktails of same, were prepared at a concentration of 500 ppm in distilled water. For the assay, 50 μl samples of test compounds were mixed with 20-30 μl of saliva (either “pooled” or “unpooled”) prior to the addition of Amplex® Red. Following the mixture of the test compounds with saliva, 50 μl of Amplex® Red/HRP working solution (See Protocol for Invitrogen Assay #A22188, which is incorporated herein in its entirety), which has a concentration of 100 μM of Amplex® Red, is added to the test compound/saliva mixture. […] Reactions were allowed to run for 30 minutes during these assays.

Another test concerns the target T1, α-amylase (Homo sapiens, UniProt P0DUB6).
T1 sequence (P0DUB6 16-511): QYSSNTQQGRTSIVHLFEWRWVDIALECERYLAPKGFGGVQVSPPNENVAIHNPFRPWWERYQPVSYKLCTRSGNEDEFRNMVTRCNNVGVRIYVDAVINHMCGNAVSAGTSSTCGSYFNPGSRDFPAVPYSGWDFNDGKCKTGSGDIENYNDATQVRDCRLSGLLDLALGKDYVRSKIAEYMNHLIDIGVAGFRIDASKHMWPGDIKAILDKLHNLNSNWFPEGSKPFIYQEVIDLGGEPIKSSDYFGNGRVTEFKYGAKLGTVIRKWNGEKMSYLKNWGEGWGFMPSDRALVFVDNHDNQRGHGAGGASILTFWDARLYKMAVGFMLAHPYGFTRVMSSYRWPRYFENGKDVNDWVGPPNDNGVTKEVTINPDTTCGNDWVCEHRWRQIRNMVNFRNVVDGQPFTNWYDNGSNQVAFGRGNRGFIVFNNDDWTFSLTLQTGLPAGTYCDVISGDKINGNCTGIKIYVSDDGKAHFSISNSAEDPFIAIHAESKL
The experiment in a line: α-Amylase inhibition saliva screening (2-chloro-p-nitrophenol-maltotriose substrate, 405 nm). Type of test: biochemical. To be noted: for absorbance at 405 nm, single readings: 37° C., beside 100% Saliva Control; for Ave: mean of four readings at 405 nm.

Where “and” joins values, the source holds several entries; their conditions need not be identical. Equal values may be shown once.

Source text for α-amylase: Enzymatic activity of α-amylase on the substrate yields 2-chloro-p-nitrophenol, which can be measured spectrophotometrically at 405 nm. The amount of α-amylase activity present in the experimental sample is directly proportional to the increase in absorbance at 405 nm.

Take `Cn1c(=O)c2c(ncn2C)n(C)c1=O` [CDI #33, Caffeine]: the peroxidase inhibition entry in the test with peroxidase was “significant peroxidase inhibition capabilities”.
As to “Aluminum potassium sulfate dodecahydrate [CDI-42]”, the “absorbance at 405 nm, single readings” value at α-amylase (0 min) is 0.80 and 0.90 and 0.84; at α-amylase (5 min) it was 1.80. The Ave at α-amylase (0 min) is on record as 0.92; at α-amylase (5 min), 1.85; on α-amylase (15 min), 2.29. Also, the peroxidase inhibition result in the test with peroxidase is “significant peroxidase inhibition capabilities”.
With `COc1ccc(O)c(C(C)(C)C)c1` [CDI-039, 3-tert--butyl-hydroxyanisole], the peroxidase inhibition result in the test on peroxidase is listed as “significant peroxidase inhibition capabilities”.
Consider Aluminum sulfate hydrate [CDI-34], for which the “absorbance at 405 nm, single readings” value at α-amylase (0 min, sulfate hydrate) is 0.40 and 0.36 and 0.45; on α-amylase (5 min, sulfate hydrate) it was 0.49 and 0.50 and 0.52; on α-amylase (15 min, sulfate hydrate), 0.53 and 0.61 and 0.54 and 0.56. Further, the values for the Ave at α-amylase (0 min), at α-amylase (5 min) and on α-amylase (15 min) were 0.40, 0.50 and 0.56, respectively.

The values are drawn from patent publication US8426151B2, “Systems and methods for the detection of biomarkers” (Companion Diagnostics Inc., priority 2010, dated 2013).
